*1 amine or outer side, *2 acyl side, *3 side chain or, on linkers, in order; H or OH if unused. Where a SMILES comes first, the peptide text is derived from it. Bridges are numbered along the chain shown (N, C = ends). [ ]: non-standard residue; d: D form. TATA = O=C(CC[*:1])N1CN(C(=O)CC[*:2])CN(C(=O)CC[*:3])C1; Phe(2-Me) = Cc1ccccc1C[C@H](N)C(=O)O; tBuAla = CC(C)(C)C[C@H](N)C(=O)O
Each compound was assayed against TREM2 extracellular domain (ECD) (residues 19-131, C-terminally biotinylated, deglycosylated or glycosylated) (Homo sapiens, UniProt Q9NZC2) (assay: biochemical). Conditions: Human BLI (Kd; nM) (deglycosylated), Table 4A; deglycosylated human TREM2 ECD; steady-state KD, 25° C.
Sequence of TREM2 extracellular domain (ECD) (residues 19-131, C-terminally biotinylated, deglycosylated or glycosylated) (Q9NZC2 19-131): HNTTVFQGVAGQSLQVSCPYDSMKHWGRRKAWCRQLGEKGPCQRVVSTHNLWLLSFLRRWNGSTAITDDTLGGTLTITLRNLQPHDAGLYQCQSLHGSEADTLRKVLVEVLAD
Procedure: Bio-layer interferometry was performed on an Octet RED384® system (Sartorius) at 25° C. in a buffer containing 50 mM HEPES (pH 7.5), 150 mM NaCl and 0.1% Tween. TREM2 extracellular domain (ECD) (residues 19-131, C-terminally biotinylated, deglycosylated or glycosylated) was loaded onto Superstreptavidin biosensors (SSA, 18-5070, Sartorius) at 0.0125 mg/ml for 300 s. Bicycle peptides (10 mM in DMSO) were dispensed into 384-Well Tilted-Bottom Plates (18-5076, Sartorius) using an Echo liquid handler giving a final DMSO concentration of 0.125% in all wells including control wells. Association of defined concentrations of bicyclic peptide (0-12.5 μM, 1:2 dilutions for 7 points) was recorded over 120 s followed by dissociation in buffer over 120 s. Reference wells containing no bicycle peptides and reference sensors loaded with an unrelated protein (His-tagged MLLT3a) were subjected to the same assay protocol and double reference subtraction was used for processing to account for non-specific binding. Traces were analysed using Octet Software (Version 11.0). Association and dissociation curves were globally fit and the response at equilibrium (Req) plotted against concentration to obtain steady-state KD values.
`C[C@H](N)C(=O)N[C@H]1CSCCC(=O)N2CN3CN(C2)C(=O)CCSC[C@H](NC(=O)[C@H](Cc2ccc(O)cc2)NC(=O)[C@H](CC(N)=O)NC(=O)[C@H](CO)NC1=O)C(=O)N[C@@H](Cc1ccccc1)C(=O)N[C@@H](Cc1c[nH]c2ccccc12)C(=O)N1CCC[C@H]1C(=O)N[C@@H](Cc1ccccc1)C(=O)N[C@@H](Cc1c[nH]c2ccccc12)C(=O)N[C@@H](CCC(N)=O)C(=O)N[C@H](C(=O)N[C@@H](C)C(N)=O)CSCCC3=O` [BCY19770, A-(SEQ ID NO: 12)-A] (H-ACSNYCFWPFWQCA-NH2; linker 2-6-13 via TATA; N-terminus and C-terminus assumed) gave a Kd of 1800 nM.
`C[C@H](N)C(=O)N[C@H]1CSCCC(=O)N2CN3CN(C2)C(=O)CCSC[C@H](NC(=O)[C@H](Cc2ccc(O)cc2)NC(=O)[C@H](CC(N)=O)NC(=O)[C@H]([C@@H](C)O)NC1=O)C(=O)N[C@@H](Cc1ccccc1)C(=O)N[C@@H](Cc1c[nH]c2ccccc12)C(=O)N1CCC[C@H]1C(=O)N[C@@H](Cc1ccccc1)C(=O)N[C@@H](Cc1ccc(O)cc1)C(=O)N[C@@H](CO)C(=O)N[C@H](C(=O)N[C@@H](C)C(N)=O)CSCCC3=O` [BCY19781, A-(SEQ ID NO: 20)-A] (H-ACTNYCFWPFYSCA-NH2; linker 2-6-13 via TATA) showed a Kd of 1400 nM.
`CC(=O)N[C@H]1CSCCC(=O)N2CN3CN(C2)C(=O)CCSC[C@H](NC(=O)[C@H](Cc2ccc(O)cc2)NC(=O)[C@H](CCC(=O)O)NC(=O)[C@H](CO)NC1=O)C(=O)N[C@@H](Cc1ccccc1)C(=O)N[C@@H](Cc1c[nH]c2ccccc12)C(=O)N1CCC[C@H]1C(=O)N[C@@H](Cc1ccccc1)C(=O)N[C@@H](Cc1ccc(O)cc1)C(=O)N[C@@H](Cc1c[nH]cn1)C(=O)N[C@H](C(N)=O)CSCCC3=O` [BCY18217, Ac-(SEQ ID NO: 1)] gave a Kd of 900 nM.
For `NC(=O)[C@@H]1CSCCC(=O)N2CN3CN(C2)C(=O)CCSC[C@H](N)C(=O)N[C@@H](CO)C(=O)N[C@@H](CCC(=O)O)C(=O)N[C@@H](Cc2ccc(O)cc2)C(=O)N[C@@H](CSCCC3=O)C(=O)N[C@@H](Cc2ccccc2)C(=O)N[C@@H](Cc2c[nH]c3ccccc23)C(=O)N2CCC[C@H]2C(=O)N[C@@H](Cc2ccccc2)C(=O)N[C@@H](Cc2ccc(O)cc2)C(=O)N[C@@H](Cc2c[nH]cn2)C(=O)N1` [BCY18219, SEQ ID NO: 1], the Kd was 700 nM.
With `C[C@H](N)C(=O)N[C@H]1CSCCC(=O)N2CN3CN(C2)C(=O)CCSC[C@H](NC(=O)[C@H](Cc2ccc(O)cc2)NC(=O)[C@H](CCC(=O)O)NC(=O)[C@H](C)NC1=O)C(=O)N[C@@H](Cc1ccccc1)C(=O)N[C@@H](Cc1c[nH]c2ccccc12)C(=O)N1CCC[C@H]1C(=O)N[C@@H](Cc1ccccc1)C(=O)N[C@@H](Cc1ccc(O)cc1)C(=O)N[C@@H](Cc1c[nH]cn1)C(=O)N[C@H](C(=O)N[C@@H](C)C(N)=O)CSCCC3=O` [BCY18220, A-(SEQ ID NO: 24)-A] (H-ACAEYCFWPFYHCA-NH2; linker 2-6-13 via TATA) the Kd was 2000 nM.
With `CC(=O)N[C@H]1CSCCC(=O)N2CN3CN(C2)C(=O)CCSC[C@H](NC(=O)[C@H](Cc2ccc(O)cc2)NC(=O)[C@H](CCC(=O)O)NC(=O)[C@H](CO)NC1=O)C(=O)N[C@@H](Cc1ccccc1)C(=O)N[C@@H](Cc1c[nH]c2cc(Cl)ccc12)C(=O)N1CCC[C@H]1C(=O)N[C@@H](Cc1ccccc1)C(=O)N[C@@H](Cc1ccc(O)cc1)C(=O)N[C@@H](Cc1c[nH]cn1)C(=O)N[C@H](C(N)=O)CSCCC3=O` [BCY19671, Ac-(SEQ ID NO: 42)] the Kd was 1000 nM.

Same assay, conditions: Human BLI (Kd; nM) (deglycosylated), Table 4B; deglycosylated human TREM2 ECD; steady-state KD, 25° C.
`CC(=O)N[C@H]1CSCCC(=O)N2CN3CN(C2)C(=O)CCSC[C@H](NC(=O)[C@H](Cc2ccc(O)cc2)NC(=O)[C@H](CCC(=O)O)NC(=O)[C@H](CO)NC1=O)C(=O)N[C@@H](Cc1ccccc1)C(=O)N[C@@H](Cc1ccccc1C)C(=O)N1CCC[C@H]1C(=O)N[C@@H](Cc1ccccc1)C(=O)N[C@@H](Cc1ccc(O)cc1)C(=O)N[C@@H](Cc1c[nH]cn1)C(=O)N[C@H](C(N)=O)CSCCC3=O` [BCY20063, Ac-(SEQ ID NO: 61)] (Ac-CSEYCF[Phe(2-Me)]PFYHC-NH2; linker 1-5-12 via TATA) showed a Kd of 1300 nM.
`CC(=O)N[C@H]1CSCCC(=O)N2CN3CN(C2)C(=O)CCSC[C@H](NC(=O)[C@H](Cc2ccc(O)cc2)NC(=O)[C@H](CCC(=O)O)NC(=O)[C@@H](C)NC1=O)C(=O)N[C@@H](Cc1ccccc1)C(=O)N[C@@H](Cc1c[nH]c2ccccc12)C(=O)N1CCC[C@H]1C(=O)N[C@@H](Cc1ccccc1)C(=O)N[C@@H](Cc1ccc(O)cc1)C(=O)N[C@@H](Cc1c[nH]cn1)C(=O)N[C@H](C(N)=O)CSCCC3=O` [BCY20086, Ac-(SEQ ID NO: 79)] was tested, and the Kd was 17900 nM.
`CC(=O)N[C@H]1CSCCC(=O)N2CN3CN(C2)C(=O)CCSC[C@H](NC(=O)[C@H](Cc2ccc(O)cc2)NC(=O)[C@H](CCC(=O)O)NC(=O)[C@H](CO)NC1=O)C(=O)N[C@@H](Cc1ccccc1)C(=O)N[C@@H](Cc1c[nH]c2ccccc12)C(=O)N1CC[C@H]1C(=O)N[C@@H](Cc1ccccc1)C(=O)N[C@@H](Cc1ccc(O)cc1)C(=O)N[C@@H](Cc1c[nH]cn1)C(=O)N[C@H](C(N)=O)CSCCC3=O` [BCY20068, Ac-(SEQ ID NO: 64)] was tested, and the Kd was 2540 nM.
`CC(=O)N[C@H]1CSCCC(=O)N2CN3CN(C2)C(=O)CCSC[C@H](NC(=O)[C@H](Cc2ccc(O)cc2)NC(=O)[C@H](CCC(=O)O)NC(=O)[C@H](CO)NC1=O)C(=O)N[C@@H](Cc1ccccc1F)C(=O)N[C@@H](Cc1c[nH]c2ccccc12)C(=O)N1CCC[C@H]1C(=O)N[C@@H](Cc1ccccc1)C(=O)N[C@@H](Cc1ccc(O)cc1)C(=O)N[C@@H](Cc1c[nH]cn1)C(=O)N[C@H](C(N)=O)CSCCC3=O` [BCY20051, Ac-(SEQ ID NO: 51)] gave a Kd of 2030 nM.
`CC(=O)N[C@H]1CSCCC(=O)N2CN3CN(C2)C(=O)CCSC[C@H](NC(=O)[C@H](Cc2ccc(O)cc2)NC(=O)[C@H](CCC(=O)O)NC(=O)[C@H](CO)NC1=O)C(=O)N[C@@H](Cc1ccccc1)C(=O)N[C@@H](Cc1c[nH]c2ccccc12)C(=O)N1CCCC[C@H]1C(=O)N[C@@H](Cc1ccccc1)C(=O)N[C@@H](Cc1ccc(O)cc1)C(=O)N[C@@H](Cc1c[nH]cn1)C(=O)N[C@H](C(N)=O)CSCCC3=O` [BCY20069, Ac-(SEQ ID NO: 62)] gave a Kd of 1460 nM.
Compound `CC(=O)N[C@H]1CSCCC(=O)N2CN3CN(C2)C(=O)CCSC[C@H](NC(=O)[C@H](Cc2ccc(O)cc2)NC(=O)[C@H](CCC(=O)O)NC(=O)[C@H](CO)NC1=O)C(=O)N[C@@H](Cc1ccccc1)C(=O)N[C@@H](Cc1c[nH]c2ccccc12)C(=O)N1CCC[C@H]1C(=O)N[C@@H](Cc1ccccc1)C(=O)N[C@@H](Cc1ccc(O)cc1)C(=O)N[C@@H](CC(N)=O)C(=O)N[C@H](C(N)=O)CSCCC3=O` [BCY20083, Ac-(SEQ ID NO: 78)] (Ac-CSEYCFWPFYNC-NH2; linker 1-5-12 via TATA) has a Kd of 1830 nM.
`CC(=O)N[C@H]1CSCCC(=O)N2CN3CN(C2)C(=O)CCSC[C@H](NC(=O)[C@H](Cc2ccc(O)cc2)NC(=O)[C@H](CCC(=O)O)NC(=O)[C@H](CO)NC1=O)C(=O)N[C@@H](Cc1ccccc1)C(=O)N[C@@H](Cc1c[nH]c2ccccc12)C(=O)N1CCC[C@H]1C(=O)N[C@@H](Cc1ccccc1)C(=O)N[C@@H](Cc1ccc(O)cc1)C(=O)N[C@@H](CCC(N)=O)C(=O)N[C@H](C(N)=O)CSCCC3=O` [BCY20572, Ac-(SEQ ID NO: 98)] (Ac-CSEYCFWPFYQC-NH2; linker 1-5-12 via TATA) gave a Kd of 1060 nM.

Same assay, conditions: Human BLI (Kd; nM) glycosylated, Table 4B; glycosylated human TREM2 ECD
`CC(=O)N[C@H]1CSCCC(=O)N2CN3CN(C2)C(=O)CCSC[C@H](NC(=O)[C@H](Cc2ccc(O)cc2)NC(=O)[C@H](CCC(=O)O)NC(=O)[C@H](CO)NC1=O)C(=O)N[C@@H](Cc1ccccc1)C(=O)N[C@@H](Cc1c[nH]c2ccccc12)C(=O)N1CCC[C@H]1C(=O)N[C@@H](Cc1ccccc1)C(=O)N[C@@H](Cc1c[nH]c2ccccc12)C(=O)N[C@@H](Cc1c[nH]cn1)C(=O)N[C@H](C(N)=O)CSCCC3=O` [BCY20077, Ac-(SEQ ID NO: 73)] (Ac-CSEYCFWPFWHC-NH2; linker 1-5-12 via TATA) gave a Kd of 750 nM.
Work on `CC(=O)N[C@H]1CSCCC(=O)N2CN3CN(C2)C(=O)CCSC[C@H](NC(=O)[C@H](Cc2ccc(O)cc2)NC(=O)[C@H](CCC(=O)O)NC(=O)[C@H](CO)NC1=O)C(=O)N[C@@H](Cc1ccccc1)C(=O)N[C@@H](Cc1c[nH]c2ccccc12)C(=O)N1CCC[C@H]1C(=O)N[C@@H](CC(C)(C)C)C(=O)N[C@@H](Cc1ccc(O)cc1)C(=O)N[C@@H](Cc1c[nH]cn1)C(=O)N[C@H](C(N)=O)CSCCC3=O` [BCY20074, Ac-(SEQ ID NO: 68)] (Ac-CSEYCFWP[tBuAla]YHC-NH2; linker 1-5-12 via TATA) yielded a Kd of 920 nM.

— patent US11904020B2, “Bicyclic peptide ligands specific for TREM2” (Bicycle Tx Limited, priority 2021, dated 2024)
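Also: Bio-layer interferometry in 50 mM HEPES pH 7.5 with 150 mM NaCl and 0.1% Tween, double-referenced with blank wells and unrelated-protein sensors, equilibrium response fitted versus concentration.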
